In patent US10106556B2, “Heterocyclic compound” (TAKEDA PHARMACEUTICAL COMPANY LIMITED, priority 2015, dated 2018):

Molecular target: T1, His-hMAGL (recombinant polyhistidine tagged human MAGL protein) (Homo sapiens, UniProt Q99685)
T1 construct: made in house; host or cells: E. coli BL21(DE3)
T1 sequence (Q99685 1-303): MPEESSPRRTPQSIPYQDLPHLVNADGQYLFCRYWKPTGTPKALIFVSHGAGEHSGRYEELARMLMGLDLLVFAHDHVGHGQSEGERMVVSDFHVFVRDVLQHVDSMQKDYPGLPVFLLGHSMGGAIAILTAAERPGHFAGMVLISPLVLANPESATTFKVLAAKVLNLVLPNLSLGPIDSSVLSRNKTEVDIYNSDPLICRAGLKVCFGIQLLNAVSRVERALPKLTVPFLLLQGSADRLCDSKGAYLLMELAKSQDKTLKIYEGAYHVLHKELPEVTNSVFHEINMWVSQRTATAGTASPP
Test: Measurement of MAGL inhibitory activity (arachidonic acid production from 2-arachidonylglycerol, RapidFire-mass spectrometry)
Type: biochemical
Conditions: MAGL inhibitory rate at 10 μM test compound; 60 min preincubation with His-hMAGL, 2-arachidonylglycerol substrate, 10 min reaction at room temperature
Outline: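 Recombinant His-tagged human MAGL converted 2-arachidonylglycerol to arachidonic acid. Reactions received acetonitrile with 3 μM arachidonic acid-d8 as internal standard, and product was quantified by RapidFire SPE (C4) with negative-mode SRM mass spectrometry. Percent inhibition was calculated against compound-free and enzyme-free controls.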

| inhibition at 10 µM [%] | Compound |
| --- | --- |
| 100 | CC(Oc1ccc2cn[nH]c2c1)C1CN(C(=O)c2cc3c(cc2F)OCC(=O)N3)C1 (centres unmarked) [Example 299, 7-fluoro-6-((3-(1-(1H-indazol-6-yloxy)ethyl)azetidin-1-yl)carbonyl)-2H-1,4-benzoxazin-3(4H)-one] |
| 97 | Cn1ccc(-c2cc(Cl)ccc2OCC2CN(C(=O)c3cc4c(cc3F)OCC(=O)N4)C2)n1 [Example 216, 6-((3-((4-chloro-2-(1-methyl-1H-pyrazol-3-yl)phenoxy)methyl)azetidin-1-yl)carbonyl)-7-fluoro-2H-1,4-benzoxazin-3(4H)-one] |
| 99 | CC(Oc1ccc(F)c(F)c1)C1CN(C(=O)c2cc3c(cc2F)OCC(=O)N3)C1 (centres unmarked) [Example 304, 6-((3-(1-(3,4-difluorophenoxy)ethyl)azetidin-1-yl)carbonyl)-7-fluoro-2H-1,4-benzoxazin-3(4H)-one] |
| 104 | Cc1cc(-c2cc(Cl)ccc2OCC2CN(C(=O)c3cc4c(cc3F)OCC(=O)N4)C2)nn1C [Example 217, 6-((3-((4-chloro-2-(1,5-dimethyl-1H-pyrazol-3-yl)phenoxy)methyl)azetidin-1-yl)carbonyl)-7-fluoro-2H-1,4-benzoxazin-3(4H)-one] |
| 101 | O=C1COc2cc(F)c(C(=O)N3CC(COc4cccc5ocnc45)C3)cc2N1 [Example 106, 6-((3-((1,3-benzoxazol-4-yloxy)methyl)azetidin-1-yl)carbonyl)-7-fluoro-2H-1,4-benzoxazin-3(4H)-one] |
| 97 | O=C1COc2cc(F)c(C(=O)N3CC(COc4ccc(Cl)cc4-c4nnco4)C3)cc2N1 [Example 175, 6-((3-((4-chloro-2-(1,3,4-oxadiazol-2-yl)phenoxy)methyl)azetidin-1-yl)carbonyl)-7-fluoro-2H-1,4-benzoxazin-3(4H)-one] |
| 99 | O=C1COc2cc(F)c(C(=O)N3CC(COc4cccc(Oc5ccccc5)c4)C3)cc2N1 [Example 129, 7-fluoro-6-((3-((3-phenoxyphenoxy)methyl)azetidin-1-yl)carbonyl)-2H-1,4-benzoxazin-3(4H)-one] |
| 102 | O=C1COc2cc(F)c(C(=O)N3CC(COc4ccc(Cl)cc4-c4ccccn4)C3)cc2N1 [Example 189, 6-((3-((4-chloro-2-(pyridin-2-yl)phenoxy)methyl)azetidin-1-yl)carbonyl)-7-fluoro-2H-1,4-benzoxazin-3(4H)-one] |
| 100 | Cc1cc(OCC2CN(C(=O)c3cc4c(cc3F)OCC(=O)N4)C2)ccc1Cl [Example 184, 6-((3-((4-chloro-3-methylphenoxy)methyl)azetidin-1-yl)carbonyl)-7-fluoro-2H-1,4-benzoxazin-3(4H)-one] |
| 102 | CC(OC1CN(C(=O)c2cc3c(cc2F)OCC(=O)N3)C1)c1ccc(F)cc1 (centres unmarked) [Example 354, 7-fluoro-6-((3-(1-(4-fluorophenyl)ethoxy)azetidin-1-yl)carbonyl)-2H-1,4-benzoxazin-3(4H)-one] |
| 99 | CC(C)(C)c1ccc(OCC2CN(C(=O)c3cc4c(cc3F)OCC(=O)N4)C2)c(Cl)c1 [Example 118, 6-((3-((4-tert-butyl-2-chlorophenoxy)methyl)azetidin-1-yl)carbonyl)-7-fluoro-2H-1,4-benzoxazin-3(4H)-one] |
| 102 | COc1ccc(COC2CN(C(=O)c3cc4c(cc3F)OCC(=O)N4)C2)c(Cl)c1 [Example 347, 6-((3-((2-chloro-4-methoxybenzyl)oxy)azetidin-1-yl)carbonyl)-7-fluoro-2H-1,4-benzoxazin-3(4H)-one] |
| 105 | O=C1COc2cc(F)c(C(=O)N3CC(COc4ccc(Cl)cc4Cl)C3)cc2N1 [Example 76, 6-((3-((2,4-dichlorophenoxy)methyl)azetidin-1-yl)carbonyl)-7-fluoro-2H-1,4-benzoxazin-3(4H)-one] |
| 98 | O=C1COc2cc(F)c(C(=O)N3CC(COc4ccc5cccnc5c4)C3)cc2N1 [Example 171, 7-fluoro-6-((3-((quinolin-7-yloxy)methyl)azetidin-1-yl)carbonyl)-2H-1,4-benzoxazin-3(4H)-one] |
| 100 | O=C1COc2cc(F)c(C(=O)N3CC(COc4ccc(Cl)c(Cl)c4)C3)cc2N1 [Example 124, 6-((3-((3,4-dichlorophenoxy)methyl)azetidin-1-yl)carbonyl)-7-fluoro-2H-1,4-benzoxazin-3(4H)-one] |

Second part, the compound before the results:

| Compound | inhibition at 10 µM [%] |
| --- | --- |
| Cc1nn(C)c(C)c1-c1ccc(OCC2CN(C(=O)c3cc4c(cc3F)OCC(=O)N4)C2)c(F)c1 [Example 251, 7-fluoro-6-((3-((2-fluoro-4-(1,3,5-trimethyl-1H-pyrazol-4-yl)phenoxy)methyl)azetidin-1-yl)carbonyl)-2H-1,4-benzoxazin-3(4H)-one] | 100 |
| O=C1COc2ccc(C(=O)N3CC(OCc4ccccc4)C3)cc2N1 [Example 326, 6-((3-(benzyloxy)azetidin-1-yl)carbonyl)-2H-1,4-benzoxazin-3(4H)-one] | 98 |
| O=C1COc2cc(F)c(C(=O)N3CC(COc4ccccc4-c4ccccc4)C3)cc2N1 [Example 109, 6-((3-((biphenyl-2-yloxy)methyl)azetidin-1-yl)carbonyl)-7-fluoro-2H-1,4-benzoxazin-3(4H)-one] | 103 |
| O=C1COc2cc(F)c(C(=O)N3CC(COc4ccc(Cl)cc4-c4ccnc(Cl)c4)C3)cc2N1 [Example 208, 6-((3-((4-chloro-2-(2-chloropyridin-4-yl)phenoxy)methyl)azetidin-1-yl)carbonyl)-7-fluoro-2H-1,4-benzoxazin-3(4H)-one] | 98 |
| O=C1COc2cc(F)c(C(=O)N3CC(COc4ccc(Cl)cc4-c4ccc(F)cn4)C3)cc2N1 [Example 195, 6-((3-((4-chloro-2-(5-fluoropyridin-2-yl)phenoxy)methyl)azetidin-1-yl)carbonyl)-7-fluoro-2H-1,4-benzoxazin-3(4H)-one] | 101 |
| O=C1COc2ncc(C(=O)N3CCC(COc4cccc(Cl)c4)CC3)cc2N1 [Example 13, 7-((4-((3-chlorophenoxy)methyl)piperidin-1-yl)carbonyl)-1H-pyrido[2,3-b][1,4]oxazin-2(3H)-one] | 99 |
| O=C1COc2cnc(C(=O)N3CCC(COc4ccc(C(F)(F)F)cc4Cl)CC3)cc2N1 [Example 144, 7-((4-((2-chloro-4-(trifluoromethyl)phenoxy)methyl)piperidin-1-yl)carbonyl)-1H-pyrido[3,4-b][1,4]oxazin-2(3H)-one] | 98 |
| O=C1COc2ccc(C(=O)N3CCC(COc4ccc(Cl)cc4Cl)CC3)cc2N1 [Example 23, 6-((4-((2,4-dichlorophenoxy)methyl)piperidin-1-yl)carbonyl)-2H-1,4-benzoxazin-3(4H)-one] | 100 |
| O=C1COc2ccc(C(=O)N3CCC(F)(COc4ccc(F)cc4Cl)CC3)cc2N1 [Example 27, 6-((4-((2-chloro-4-fluorophenoxy)methyl)-4-fluoropiperidin-1-yl)carbonyl)-2H-1,4-benzoxazin-3(4H)-one] | 101 |
| O=C1COc2cc(F)c(C(=O)N3CC(COc4ccc(-c5ccc(C(F)(F)F)nc5)cc4F)C3)cc2N1 [Example 256, 7-fluoro-6-((3-((2-fluoro-4-(6-(trifluoromethyl)pyridin-3-yl)phenoxy)methyl)azetidin-1-yl)carbonyl)-2H-1,4-benzoxazin-3(4H)-one] | 98 |
| O=C1COc2cc(F)c(C(=O)N3CC(COC4CCCCC4)C3)cc2N1 [Example 280, 6-((3-((cyclohexyloxy)methyl)azetidin-1-yl)carbonyl)-7-fluoro-2H-1,4-benzoxazin-3(4H)-one] | 102 |
| O=C1COc2cc(F)c(C(=O)N3CC(COc4ccc(-c5ccnc(Cl)c5)cc4F)C3)cc2N1 [Example 241, 6-((3-((4-(2-chloropyridin-4-yl)-2-fluorophenoxy)methyl)azetidin-1-yl)carbonyl)-7-fluoro-2H-1,4-benzoxazin-3(4H)-one] | 101 |
| Cn1cccc1-c1ccc(OCC2CN(C(=O)c3cc4c(cc3F)OCC(=O)N4)C2)c(F)c1 [Example 255, 7-fluoro-6-((3-((2-fluoro-4-(1-methyl-1H-pyrrol-2-yl)phenoxy)methyl)azetidin-1-yl)carbonyl)-2H-1,4-benzoxazin-3(4H)-one] | 102 |
| CCc1ncccc1-c1ccc(OCC2CN(C(=O)c3cc4c(cc3F)OCC(=O)N4)C2)c(F)c1 [Example 233, 6-((3-((4-(2-ethylpyridin-3-yl)-2-fluorophenoxy)methyl)azetidin-1-yl)carbonyl)-7-fluoro-2H-1,4-benzoxazin-3(4H)-one] | 100 |
| Cc1nn(C)cc1-c1ccc(OCC2CN(C(=O)c3cc4c(cc3F)OCC(=O)N4)C2)c(F)c1 [Example 249, 6-((3-((4-(1,3-dimethyl-1H-pyrazol-4-yl)-2-fluorophenoxy)methyl)azetidin-1-yl)carbonyl)-7-fluoro-2H-1,4-benzoxazin-3(4H)-one] | 101 |
| Cc1cc2c(cc1C(=O)N1CCC(COc3ccc(F)cc3Cl)CC1)NC(=O)CO2 [Example 89, 6-((4-((2-chloro-4-fluorophenoxy)methyl)piperidin-1-yl)carbonyl)-7-methyl-2H-1,4-benzoxazin-3(4H)-one] | 90 |

Same assay, conditions: MAGL inhibitory rate at 10 μM test compound; 60 min preincubation with His-hMAGL, 2-arachidonylglycerol substrate, 10 min reaction at room temperature; 10 µM

| % inhibition (10 μM) [%] | Compound |
| --- | --- |
| 103 | CC(Oc1cccc(F)c1F)C1CN(C(=O)c2cc3c(cc2F)OCC(=O)N3)C1 (centres unmarked) [Example 311, 6-((3-(1-(2,3-difluorophenoxy)ethyl)azetidin-1-yl)carbonyl)-7-fluoro-2H-1,4-benzoxazin-3(4H)-one] |
